Assay results as given in patent US20160194299A1 (priority 2013, published 2016).
In brackets after ≈: the same amount, converted by molar mass. Read-outs that look alike come from different tables or passages of the source.

Legend:
Mtb [1] = assay: microbe, parasite or virus in culture; type: cell-based, Mycobacterium tuberculosis; settings: Mycobacterium tuberculosis
Mtb [2] = assay: microbe, parasite or virus in culture; type: cell-based, Mycobacterium tuberculosis; settings: Mycobacterium tuberculosis, read-out: MIC (III)
in vitro = settings: African green monkey
[3] = read-out: MIC, microplate alamar blue assay (MABA; I)

Compound	MIC (Mtb [1]; read-out: MIC (I)) [µg/mL]	MIC (Mtb [2]) [µg/mL]	CC50 (in vitro) [µg/mL]	MIC (Mtb [1]; [3]) [µg/mL]
CC(C)OC(=O)NC(=O)c1ccsc1NC(=O)c1cnc2ccoc2c1 [Compound 354]	> 3	> 25	25 to 50 (≈ 67 to 134 µM)	
CCOC(=O)NC(=O)c1ccsc1NC(=O)C1COc2cc(OC)ccc2C1 (centres unmarked) [Compound 70]	> 3	> 25	> 50	
CCOC(=O)NC(=O)c1ccsc1NC(=O)c1nc(C(F)(F)F)cs1 [Compound 144]	> 3	> 25	> 50	
CCOC(=O)NC(=O)c1ccsc1NC(=O)c1ccnc(NC(=O)N2CCOCC2)c1 [Compound 33]	< 1	> 25	> 50	
CC(C)COC(=O)NC(=O)c1ccsc1NC(=O)c1nc2ccccc2s1 [Compound 281]	< 1	> 25	25 to 50 (≈ 62 to 124 µM)	
CCOC(=O)NC(=O)c1ccsc1NC(=O)c1cnn2ccccc12 [Compound 265]	> 3	> 25	25 to 50 (≈ 69.8 to 140 µM)	
CCOC(=O)NC(=O)c1ccsc1NC(=O)c1cc2ncccn2n1 [Compound 250]	< 1	5 to 25 (≈ 13.9 to 69.6 µM)		
CC(OC(=O)NC(=O)c1ccsc1NC(=O)c1nc2cnccc2s1)C(F)(F)F (centres unmarked) [Compound 325]	< 1	> 25		
CCOC(=O)NC(=O)c1ccsc1NC(=O)c1cccnn1 [Compound 249]	> 3	> 25		
CCOC(=O)NC(=O)c1ccsc1NC(=O)c1cc(C)nc2ccccc12 [Compound 122]	> 3	> 25	> 50	
CC1CCN(C(=O)c2ccsc2NC(=O)c2nc3ccccc3s2)CC1 [Compound 260]	> 3	> 25	25 to 50 (≈ 64.8 to 130 µM)	
CC(OC(=O)NC(=O)c1ccsc1NC(=O)c1cnc2ccnn2c1)C(F)(F)F (centres unmarked) [Compound 326]	> 3	> 25		
CC(=O)N1CCC(OC(=O)NC(=O)c2ccsc2NC(=O)c2cnc3ccnn3c2)CC1 [Compound 368]	> 3	> 25	25 to 50 (≈ 54.8 to 110 µM)	
CCOC(=O)NC(=O)c1ccsc1NC(=O)c1ccnc(NC(=O)N2CCCCC2)c1 [Compound 51]	< 1	> 25	25 to 50 (≈ 56.1 to 112 µM)	
CCOC(=O)NC(=O)c1ccsc1NC(=O)c1cc2cnccc2s1 [Compound 334]	< 1	> 25	> 50	
O=C(Nc1sccc1C(=O)N1CCN(c2ccccc2)CC1)c1nc2ccccc2s1 [Compound 258]	> 3	> 25	> 50	
CCOC(=O)NC(=O)c1ccsc1NC(=O)C1CCc2ccccc2N1 (centres unmarked) [Compound 143]	> 3	5 to 25 (≈ 13.4 to 66.9 µM)	> 50	
CCOC(=O)NC(=O)c1ccsc1NC(=O)c1cnn2cccnc12 [Compound 253]	> 3	> 25		
COCCOC(=O)NC(=O)c1ccsc1NC(=O)c1cn2ccccc2n1 [Compound 373]	> 3	> 25	25 to 50 (≈ 64.4 to 129 µM)	
O=C(NC(=O)c1ccsc1NC(=O)c1nc2cnccc2s1)OC1CCCC1 [Compound 380]	< 1	> 25	< 25	
CCOC(=O)NC(=O)c1cc(F)sc1NC(=O)c1cn2ccccc2n1 [Compound 338]	< 1	> 25	25 to 50 (≈ 66.4 to 133 µM)	
CCOC(=O)NC(=O)c1ccsc1NC(=O)c1nc2cc(C#N)cnc2s1 [Compound 54]	< 1	> 25		
CC(C)OC(=O)NC(=O)c1cc(F)sc1NC(=O)c1cnc2ccnn2c1 [Compound 316]	1 to 3 (≈ 2.56 to 7.67 µM)	> 25	25 to 50 (≈ 63.9 to 128 µM)	
CN(C)C(=O)NC(=O)c1ccsc1NC(=O)c1cn2ccccc2n1 [Compound 383]	> 3	> 25	< 25	
COCCOC(=O)NC(=O)c1ccsc1NC(=O)c1nc2ccccc2s1 [Compound 18]	< 1	> 25	> 50	

Compound	MIC (Mtb [1]; read-out: MIC (I)) [µg/mL]	MIC (Mtb [2]) [µg/mL]	CC50 (in vitro) [µg/mL]	MIC (Mtb [1]; [3]) [µg/mL]
O=C(NC(=O)c1ccsc1NC(=O)c1cnc2ccnn2c1)OC1CCC1 [Compound 324]	< 1	> 25		
CCOC(=O)NC(=O)c1c(NC(=O)c2nc3ccccc3s2)sc2c1CCOC2 [Compound 242]		> 25	> 50	
CCOC(=O)NC(=O)c1ccsc1NC(=O)c1nc2c(s1)CCN(S(C)(=O)=O)C2 [Compound 96]	< 1	> 25		
CCOC(=O)NC(=O)c1ccsc1NC(=O)c1ccn2nccc2n1 [Compound 252]	> 3	> 25		
CCOC(=O)NC(=O)c1ccsc1NC(=O)c1cn2ccncc2n1 [Compound 78]	> 3	> 25		
CCOC(=O)NC(=O)c1ccsc1NC(=O)c1nc2c(s1)CCN(CC)C2 [Compound 79]	1 to 3 (≈ 2.45 to 7.34 µM)	> 25		
CCOC(=O)NC(=O)c1ccsc1NC(=O)c1cnc2ncccn12 [Compound 80]	1 to 3 (≈ 2.78 to 8.35 µM)	> 25		
CCOC(=O)NC(=O)c1c(C2CC2)csc1NC(=O)c1nc2ccccc2s1 [Compound 245]	> 3	> 25		
CCOC(=O)NC(=O)c1ccsc1NC(=O)c1nc2c(s1)CCN(C(=O)OC)C2 [Compound 95]	< 1	> 25		
CCOC(=O)NC(=O)c1ccsc1NC(=O)c1cnc2ccnn2c1 [Compound 81]	< 1	> 25		
O=C(NC(=O)c1ccsc1NC(=O)c1nc2cnccc2s1)OCC(F)(F)F [Compound 406]			< 25	< 1
CC(C)OC(=O)NC(=O)c1ccsc1NC(=O)c1cn2ccccc2n1 [Compound 323]	1 to 3 (≈ 2.69 to 8.06 µM)	> 25		
CCOC(=O)NC(=O)c1ccsc1NC(=O)c1ccn2nccc2c1 [Compound 251]	< 1	5 to 25 (≈ 14 to 69.8 µM)		
O=C(NC(=O)c1ccsc1NC(=O)c1nc2ncccc2s1)OCCOCc1ccccc1 [Compound 437]			< 25	< 1
CN(C)C(=O)NC(=O)c1ccsc1NC(=O)c1nc2ccccc2s1 [Compound 45]	> 3		> 50	
CCOC(=O)NC(=O)c1c(C)csc1NC(=O)c1nc2ccccc2s1 [Compound 44]	1 to 3 (≈ 2.57 to 7.7 µM)		> 50	
CC(C)OC(=O)NC(=O)c1ccsc1NC(=O)c1ccc2ncsc2c1 [Compound 410]			< 25	< 1
CC(C)(OC(=O)NC(=O)c1ccsc1NC(=O)c1nc2ccccc2s1)C(F)(F)F [Compound 25]	< 1		25 to 50 (≈ 54.7 to 109 µM)	
CCOC(=O)NC(=O)c1ccsc1NC(=O)c1ccc2ncsc2c1 [Compound 42]	< 1		< 25	
CCOC(=O)NC(=O)c1ccsc1NC(=O)c1nc2c(s1)CCNC2=O [Compound 55]	> 3	> 25		
O=C(Nc1sccc1C(=O)Nc1cccnn1)c1nc2cnccc2s1 [Compound 442]			25 to 50 (≈ 65.4 to 131 µM)	1 to 3 (≈ 2.61 to 7.84 µM)
O=C(NC(=O)c1ccsc1NC(=O)c1nc2ccccc2s1)OCC(F)F [Compound 40]	< 1		< 25	
CCOC(=O)NC(=O)c1ccsc1NC(=O)c1cn2ccc(C#N)cc2n1 [Compound 405]			< 25	1 to 3 (≈ 2.61 to 7.82 µM)
COc1ccc2c(c1)C=C(C(=O)Nc1sccc1C(=O)NC(=O)OC(C)C)CO2 [Compound 404]			< 25	< 1
O=C(Nc1sccc1C(=O)Nc1nccs1)c1nc2cnccc2s1 [Compound 435]			25 to 50 (≈ 64.5 to 129 µM)	> 3
